Experimental data: patent publication US20230085307A1, “PYRIDAZINONE COMPOUND AND HERBICIDE” (NISSAN CHEMICAL CORPORATION, priority 2019, published 2023)

Tests used:
barnyard grass [1] = experiment: Test Example 3: herbicidal effect by foliage application, Wagner pot (Table 18, symbol H); type: in vivo, barnyard grass (Echinochloa crus-galli)
Outline: (§1)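 Plants were sown in alluvial soil held under 0.1–0.5 cm standing water and grown 14 days in a greenhouse at 25–30 °C. An emulsifiable formulation, water-diluted to the set dose, was then sprayed onto the foliage, and effects were scored three weeks later using previously defined criteria.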

Chinese sprangletop = experiment: Test Example 3: herbicidal effect by foliage application, Wagner pot (Table 18, symbol D); type: in vivo, chinese sprangletop (Leptochloa chinensis)
Outline: as §1

rice flat sedge = experiment: Test Example 3: herbicidal effect by foliage application, Wagner pot (Table 18, symbol E); type: in vivo, rice flat sedge (Cyperus iria)
Outline: as §1

southern crabgrass [2] = experiment: Test Example 4: herbicidal effect by soil treatment (Table 19, symbol F); type: in vivo, southern crabgrass (Digitaria ciliaris); conditions: amount of applied herbicide 320 g/ha
Outline: (§2)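 Applied as a water-diluted emulsion, the compound was sprayed onto soil covering newly sown seeds. Evaluation came three weeks after application, in a greenhouse held at 25° C. to 30° C.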

green foxtail [3] = experiment: Test Example 4: herbicidal effect by soil treatment (Table 19, symbol G); type: in vivo, green foxtail (Setaria viridis); conditions: amount of applied herbicide 320 g/ha
Outline: as §2

barnyard grass [4] = experiment: Test Example 4: herbicidal effect by soil treatment (Table 19, symbol H); type: in vivo, barnyard grass (Echinochloa crus-galli); conditions: amount of applied herbicide 320 g/ha
Outline: as §2

wild oat [5] = experiment: Test Example 4: herbicidal effect by soil treatment (Table 19, symbol I); type: in vivo, wild oat (Avena fatua); conditions: amount of applied herbicide 320 g/ha
Outline: as §2

blackgrass [6] = experiment: Test Example 4: herbicidal effect by soil treatment (Table 19, symbol J); type: in vivo, blackgrass (Alopecurus myosuroides); conditions: amount of applied herbicide 320 g/ha
Outline: as §2

Italian ryegrass [7] = experiment: Test Example 4: herbicidal effect by soil treatment (Table 19, symbol K); type: in vivo, Italian ryegrass (Lolium multiflorum); conditions: amount of applied herbicide 320 g/ha
Outline: as §2

windgrass [8] = experiment: Test Example 4: herbicidal effect by soil treatment (Table 19, symbol L); type: in vivo, windgrass (Apera spica-venti); conditions: amount of applied herbicide 320 g/ha
Outline: as §2

velvetleaf [9] = experiment: Test Example 4: herbicidal effect by soil treatment (Table 19, symbol M); type: in vivo, velvetleaf (Abutilon theophrasti); conditions: amount of applied herbicide 320 g/ha
Outline: as §2

lambsquarters [10] = experiment: Test Example 4: herbicidal effect by soil treatment (Table 19, symbol O); type: in vivo, lambsquarters (Chenopodium album); conditions: amount of applied herbicide 320 g/ha
Outline: as §2

chickweed [11] = experiment: Test Example 4: herbicidal effect by soil treatment (Table 19, symbol P); type: in vivo, common chickweed (Stellaria media); conditions: amount of applied herbicide 320 g/ha
Outline: as §2

persian speedwell [12] = experiment: Test Example 4: herbicidal effect by soil treatment (Table 19, symbol R); type: in vivo, Persian speedwell (Veronica persica); conditions: amount of applied herbicide 320 g/ha
Outline: as §2

southern crabgrass [13] = experiment: Test Example 5: herbicidal effect by foliage application, plastic box (Table 20, symbol F); type: in vivo, southern crabgrass (Digitaria ciliaris); conditions: 320 g/ha, evaluated three weeks after application
Outline: (§3)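 Sow seeds spot-wise in sterilized diluvial soil; cover with ~1.5 cm soil. Grow 14 days in greenhouse, 25° C. to 30° C. Spray foliage with emulsion diluted to predetermined amount. Rate effect after 3 weeks.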

green foxtail [14] = experiment: Test Example 5: herbicidal effect by foliage application, plastic box (Table 20, symbol G); type: in vivo, green foxtail (Setaria viridis); conditions: 320 g/ha, evaluated three weeks after application
Outline: as §3

barnyard grass [15] = experiment: Test Example 5: herbicidal effect by foliage application, plastic box (Table 20, symbol H); type: in vivo, barnyard grass (Echinochloa crus-galli); conditions: 320 g/ha, evaluated three weeks after application
Outline: as §3

wild oat [16] = experiment: Test Example 5: herbicidal effect by foliage application, plastic box (Table 20, symbol I); type: in vivo, wild oat (Avena fatua); conditions: 320 g/ha, evaluated three weeks after application
Outline: as §3

blackgrass [17] = experiment: Test Example 5: herbicidal effect by foliage application, plastic box (Table 20, symbol J); type: in vivo, blackgrass (Alopecurus myosuroides); conditions: 320 g/ha, evaluated three weeks after application
Outline: as §3

Italian ryegrass [18] = experiment: Test Example 5: herbicidal effect by foliage application, plastic box (Table 20, symbol K); type: in vivo, Italian ryegrass (Lolium multiflorum); conditions: 320 g/ha, evaluated three weeks after application
Outline: as §3

windgrass [19] = experiment: Test Example 5: herbicidal effect by foliage application, plastic box (Table 20, symbol L); type: in vivo, windgrass (Apera spica-venti); conditions: foliage application, 320 g/ha, evaluated three weeks after application
Outline: as §3

velvetleaf [20] = experiment: Test Example 5: herbicidal effect by foliage application, plastic box (Table 20, symbol M); type: in vivo, velvetleaf (Abutilon theophrasti); conditions: 320 g/ha, evaluated three weeks after application
Outline: as §3

redroot pigweed [21] = experiment: Test Example 5: herbicidal effect by foliage application, plastic box (Table 20, symbol N); type: in vivo, redroot pigweed (Amaranthus retroflexus); conditions: 320 g/ha, evaluated three weeks after application
Outline: as §3

lambsquarters [22] = experiment: Test Example 5: herbicidal effect by foliage application, plastic box (Table 20, symbol O); type: in vivo, lambsquarters (Chenopodium album); conditions: 320 g/ha, evaluated three weeks after application
Outline: as §3

chickweed [23] = experiment: Test Example 5: herbicidal effect by foliage application, plastic box (Table 20, symbol P); type: in vivo, common chickweed (Stellaria media); conditions: 320 g/ha, evaluated three weeks after application
Outline: as §3

persian speedwell [24] = experiment: Test Example 5: herbicidal effect by foliage application, plastic box (Table 20, symbol R); type: in vivo, Persian speedwell (Veronica persica); conditions: 320 g/ha, evaluated three weeks after application
Outline: as §3

redroot pigweed [25] = experiment: Test Example 4: herbicidal effect by soil treatment (Table 19, symbol N); type: in vivo, redroot pigweed (Amaranthus retroflexus); conditions: amount of applied herbicide 320 g/ha
Outline: as §2

[26] = amount of applied herbicide 320 g/ha
[27] = foliage application after 14-day growth

With `CCCC(=O)Oc1c(C)nn(C)c(=O)c1-c1c(-c2ccc(C#N)cc2)sc2ccc(C)cc12` [2-147] the “herbicidal effect on H: barnyard grass” value (barnyard grass [1]; [26]) was 1 (Herbicidal rate of 5% or more and less than 20%), the “herbicidal effect on D: Chinese sprangletop” value (Chinese sprangletop; [26]) was 0 (Herbicidal rate of 5% or less (almost no effect)) and the “herbicidal effect on E: rice flat sedge” value (rice flat sedge; [26]) was 5 (Herbicidal rate of 90% or more (almost completely withered)). The “F: southern crabgrass, herbicidal effect rating” value (southern crabgrass [2]) was 0 (Herbicidal rate of 5% or less (almost no effect)), the “G: green foxtail, herbicidal effect rating” value (green foxtail [3]) was 0 (Herbicidal rate of 5% or less (almost no effect)) and the “H: barnyard grass, herbicidal effect rating” value (barnyard grass [4]) was 0 (Herbicidal rate of 5% or less (almost no effect)). The “I: wild oat, herbicidal effect rating” value (wild oat [5]) was 0 (Herbicidal rate of 5% or less (almost no effect)), the “J: blackgrass, herbicidal effect rating” value (blackgrass [6]) was 0 (Herbicidal rate of 5% or less (almost no effect)) and the “K: Italian ryegrass, herbicidal effect rating” value (Italian ryegrass [7]) was 0 (Herbicidal rate of 5% or less (almost no effect)). For the same compound, the “L: windgrass, herbicidal effect rating” value (windgrass [8]) was 0 (Herbicidal rate of 5% or less (almost no effect)), the “M: velvetleaf, herbicidal effect rating” value (velvetleaf [9]) was 0 (Herbicidal rate of 5% or less (almost no effect)) and the “O: lambsquarters, herbicidal effect rating” value (lambsquarters [10]) was 0 (Herbicidal rate of 5% or less (almost no effect)). The “P: chickweed, herbicidal effect rating” value (chickweed [11]) was 4 (Herbicidal rate of 70% or more and less than 90%), the “R: persian speedwell, herbicidal effect rating” value (persian speedwell [12]) was 5 (Herbicidal rate of 90% or more (almost completely withered)) and the “herbicidal effect on F: southern crabgrass (criteria 0-5)” value (southern crabgrass [13]; foliage application) was 0 (Herbicidal rate of 5% or less (almost no effect)). For the same compound, the “herbicidal effect on G: green foxtail (criteria 0-5)” value (green foxtail [14]; foliage application) was 0 (Herbicidal rate of 5% or less (almost no effect)), the “herbicidal effect on H: barnyard grass (criteria 0-5)” value (barnyard grass [15]; foliage application) was 0 (Herbicidal rate of 5% or less (almost no effect)) and the “herbicidal effect on I: wild oat (criteria 0-5)” value (wild oat [16]; foliage application) was 0 (Herbicidal rate of 5% or less (almost no effect)). The “herbicidal effect on J: blackgrass (criteria 0-5)” value (blackgrass [17]; foliage application) was 0 (Herbicidal rate of 5% or less (almost no effect)), the “herbicidal effect on K: Italian ryegrass (criteria 0-5)” value (Italian ryegrass [18]; foliage application) was 0 (Herbicidal rate of 5% or less (almost no effect)) and the “herbicidal effect on L: windgrass (criteria 0-5)” value (windgrass [19]) was 0 (Herbicidal rate of 5% or less (almost no effect)). For the same compound, the “herbicidal effect on M: velvetleaf (criteria 0-5)” value (velvetleaf [20]; foliage application) was 4 (Herbicidal rate of 70% or more and less than 90%), the “herbicidal effect on N: redroot pigweed (criteria 0-5)” value (redroot pigweed [21]; foliage application) was 5 (Herbicidal rate of 90% or more (almost completely withered)) and the “herbicidal effect on O: lambsquarters (criteria 0-5)” value (lambsquarters [22]; foliage application) was 3 (Herbicidal rate of 40% or more and less than 70%). The “herbicidal effect on P: chickweed (criteria 0-5)” value (chickweed [23]; foliage application) was 5 (Herbicidal rate of 90% or more (almost completely withered)) and the “herbicidal effect on R: persian speedwell (criteria 0-5)” value (persian speedwell [24]; foliage application) was 5 (Herbicidal rate of 90% or more (almost completely withered)).
For `Cc1nn(C)c(=O)c(-c2c(-c3ccc(F)cc3)sc3c(F)cccc23)c1O` [4-001], the “herbicidal effect on barnyard grass (H)” value (barnyard grass [1]; 320 g/ha) was 4 (Herbicidal rate of 70% or more and less than 90%), the “herbicidal effect on Chinese sprangletop (D)” value (Chinese sprangletop; 320 g/ha) was 3 (Herbicidal rate of 40% or more and less than 70%) and the “herbicidal effect on rice flat sedge (E)” value (rice flat sedge; 320 g/ha) was 5 (Herbicidal rate of 90% or more (almost completely withered)). For the same compound, the “Herbicidal effect by soil treatment, F: southern crabgrass” value (southern crabgrass [2]) was 0 (Herbicidal rate of 5% or less (almost no effect)), the “Herbicidal effect by soil treatment, G: green foxtail” value (green foxtail [3]) was 0 (Herbicidal rate of 5% or less (almost no effect)) and the “Herbicidal effect by soil treatment, H: barnyard grass” value (barnyard grass [4]) was 0 (Herbicidal rate of 5% or less (almost no effect)). For the same compound, the “Herbicidal effect by soil treatment, I: wild oat” value (wild oat [5]) was 0 (Herbicidal rate of 5% or less (almost no effect)), the “Herbicidal effect by soil treatment, J: blackgrass” value (blackgrass [6]) was 0 (Herbicidal rate of 5% or less (almost no effect)) and the “Herbicidal effect by soil treatment, K: Italian ryegrass” value (Italian ryegrass [7]) was 0 (Herbicidal rate of 5% or less (almost no effect)). For the same compound, the “Herbicidal effect by soil treatment, L: windgrass” value (windgrass [8]) was 0 (Herbicidal rate of 5% or less (almost no effect)), the “Herbicidal effect by soil treatment, M: velvetleaf” value (velvetleaf [9]) was 3 (Herbicidal rate of 40% or more and less than 70%) and the “Herbicidal effect by soil treatment, N: redroot pigweed” value (redroot pigweed [25]) was 2 (Herbicidal rate of 20% or more and less than 40%). For the same compound, the “Herbicidal effect by soil treatment, O: lambsquarters” value (lambsquarters [10]) was 5 (Herbicidal rate of 90% or more (almost completely withered)), the “Herbicidal effect by soil treatment, P: chickweed” value (chickweed [11]) was 4 (Herbicidal rate of 70% or more and less than 90%) and the “Herbicidal effect by soil treatment, R: persian speedwell” value (persian speedwell [12]) was 4 (Herbicidal rate of 70% or more and less than 90%). The “herbicidal effect on F: southern crabgrass (evaluation grade 0-5)” value (southern crabgrass [13]; [27]) was 0 (Herbicidal rate of 5% or less (almost no effect)), the “herbicidal effect on G: green foxtail (evaluation grade 0-5)” value (green foxtail [14]; [27]) was 4 (Herbicidal rate of 70% or more and less than 90%) and the “herbicidal effect on H: barnyard grass (evaluation grade 0-5)” value (barnyard grass [15]; [27]) was 2 (Herbicidal rate of 20% or more and less than 40%). The “herbicidal effect on I: wild oat (evaluation grade 0-5)” value (wild oat [16]; [27]) was 0 (Herbicidal rate of 5% or less (almost no effect)), the “herbicidal effect on J: blackgrass (evaluation grade 0-5)” value (blackgrass [17]; [27]) was 2 (Herbicidal rate of 20% or more and less than 40%) and the “herbicidal effect on K: Italian ryegrass (evaluation grade 0-5)” value (Italian ryegrass [18]; [27]) was 2 (Herbicidal rate of 20% or more and less than 40%). For the same compound, the “herbicidal effect on M: velvetleaf (evaluation grade 0-5)” value (velvetleaf [20]; [27]) was 5 (Herbicidal rate of 90% or more (almost completely withered)), the “herbicidal effect on N: redroot pigweed (evaluation grade 0-5)” value (redroot pigweed [21]; [27]) was 3 (Herbicidal rate of 40% or more and less than 70%) and the “herbicidal effect on O: lambsquarters (evaluation grade 0-5)” value (lambsquarters [22]; [27]) was 2 (Herbicidal rate of 20% or more and less than 40%). For the same compound, the “herbicidal effect on P: chickweed (evaluation grade 0-5)” value (chickweed [23]; [27]) was 5 (Herbicidal rate of 90% or more (almost completely withered)) and the “herbicidal effect on R: persian speedwell (evaluation grade 0-5)” value (persian speedwell [24]; [27]) was 5 (Herbicidal rate of 90% or more (almost completely withered)).
